A word on the pIC50: it is the negative decadic logarithm of the IC50, by convention in mol/L.

pIC50: −log10 of the molar value. Bounds are passed on as bounds.

One test deals with T1, Jarid1A (Homo sapiens, UniProt P29375).
T1 construct: purchased BPS Bioscience 50110
T1 sequence (P29375 1-1090): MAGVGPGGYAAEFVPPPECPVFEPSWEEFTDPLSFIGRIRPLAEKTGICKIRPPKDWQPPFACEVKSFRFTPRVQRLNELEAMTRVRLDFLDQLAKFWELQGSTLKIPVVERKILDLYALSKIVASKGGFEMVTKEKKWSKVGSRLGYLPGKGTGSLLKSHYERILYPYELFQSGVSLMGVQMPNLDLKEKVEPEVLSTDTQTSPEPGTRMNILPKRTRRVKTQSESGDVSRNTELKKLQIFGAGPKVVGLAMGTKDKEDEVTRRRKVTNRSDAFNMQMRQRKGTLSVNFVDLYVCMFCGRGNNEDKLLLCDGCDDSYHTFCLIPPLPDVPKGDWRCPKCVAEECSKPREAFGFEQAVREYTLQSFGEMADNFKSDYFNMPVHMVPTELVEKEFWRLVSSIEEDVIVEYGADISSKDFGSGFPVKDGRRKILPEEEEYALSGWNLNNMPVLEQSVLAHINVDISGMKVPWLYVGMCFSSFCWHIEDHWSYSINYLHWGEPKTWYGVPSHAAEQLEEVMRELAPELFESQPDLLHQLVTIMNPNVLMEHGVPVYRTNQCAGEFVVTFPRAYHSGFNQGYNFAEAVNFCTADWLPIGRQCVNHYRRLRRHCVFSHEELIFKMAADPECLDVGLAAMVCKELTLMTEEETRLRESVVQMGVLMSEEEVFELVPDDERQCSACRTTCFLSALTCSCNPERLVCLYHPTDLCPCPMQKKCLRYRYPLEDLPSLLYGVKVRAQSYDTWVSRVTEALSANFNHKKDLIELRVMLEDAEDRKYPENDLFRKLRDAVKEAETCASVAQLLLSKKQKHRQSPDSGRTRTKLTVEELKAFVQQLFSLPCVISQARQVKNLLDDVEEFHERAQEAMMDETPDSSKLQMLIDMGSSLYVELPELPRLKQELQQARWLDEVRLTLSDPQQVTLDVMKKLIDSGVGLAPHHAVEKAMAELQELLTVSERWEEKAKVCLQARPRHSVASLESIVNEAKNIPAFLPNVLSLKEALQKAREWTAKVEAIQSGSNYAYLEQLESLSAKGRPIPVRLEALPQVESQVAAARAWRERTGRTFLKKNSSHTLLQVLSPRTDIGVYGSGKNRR
Description: Jarid1A in vitro enzyme inhibition assay (TR-FRET). Format: biochemical. The text has this: This assay determines the ability of a test compound to inhibit Jarid1A, Jarid1B, and JMJD2C demethylase activity. Baculovirus expressed Jarid1A (GenBank Accession #NM_001042603, AA1-1090) was purchased from BPS Bioscience (Cat#50110). Baculovirus expressed Jarid1B (GenBank Accession #NM_006618, AA 2-751) was purchased from BPS Bioscience (Cat #50121) or custom made by MolecularThroughput. Baculovirus expressed JMJD2C (GenBank Accession #BC143571, AA 2-372) was purchased from BPS Bioscience (Cat#50105).
The enzymatic assay of Jarid1A activity is based upon Time Resolved-Fluorescence Resonance Energy Transfer (TR-FRET) detection. The ability of test compounds to inhibit the activity of Jarid1A was determined in 384-well plate format under the following reaction conditions: 1 nM Jarid1A, 300 nM H3K4me3-biotin labeled peptide (Anaspec cat #64357), 2 μM alpha-ketoglutaric acid in assay buffer of 50 mM HEPES, pH7.3, 0.005% Brij35, 0.5 mM TCEP, 0.2 mg/ml BSA, 50 μM sodium L-ascorbate, and 2 μM ammonium iron(II) sulfate. Reaction product was determined quantitatively by TR-FRET after the addition of detection reagent Phycolink Streptavidin-allophycocyanin (Prozyme) and Europium-anti-mono-or di-methylated histone H3 lysine 4 (H3K4me1-2) antibody (PerkinElmer) in the presence of 5 mM EDTA in LANCE detection buffer (PerkinElmer) at a final concentration of 25 nM and 1 nM, respectively.
The assay reaction was initiated by the following: 2 μl of the mixture of 900 nM H3K4me3-biotin labeled peptide and 6 μM alpha-ketoglutaric acid with 2 μl of 11-point serial diluted inhibitor in 3% DMSO was added to each well of plate, followed by the addition of 2 μl of 3 nM Jarid1A to initiate the reaction. The reaction mixture was incubated at room temperature for 30 minutes, and terminated by the addition of 6 μl of 5 mM EDTA in LANCE detection buffer containing 50 nM Phycolink Streptavidin-allophycocyanin and 2 nM Europium-anti-H3K4me1-2 antibody. Plates were read by EnVisionMultilabel Reader in TR-FRET mode (excitation at 320 nm, emission at 615 nm and 665 nm) after 1 hour incubation at room temperature. A ratio was calculated (665/615) for each well and fitted to determine inhibition constant (IC50).
Background: In TR-FRET formats the signal depends on donor and acceptor labels being close together.

The subject of a further test is KDM5A/B. Description: In vitro cell-based assay: immuno-blot quantification of tri-methyl H3K4 in ZR-75-1 breast cancer cells. To be noted: 72 hours, tri-methyl H3K4 level relative to GAPDH, percent of DMSO, read-out: Cellular IC50. The text has this: An assay to measure the degree of cellular inhibition of KDM5A and 5B was developed. This quantitative immuno-blotting assay measures the amount tri-methylated histone H3 at amino acid Lysine number 4, a specific substrate […] of the direct enzymatic activity of the histone demethylases KDM5A and KDM5B from extracts of the ZR-75-1 breast cancer cell line.
This assay is a fluorometric immunoassay for the quantification of tri-methyl H3K4 extracted from cells treated with test compound and is used as a measure of the cellular inhibition of KDM5A/B.
ZR-75-1 (PTEN null, ER+) breast cancer cells numbering 50,000 (ATCC) were seeded into each well of a 96-well tissue culture treated plate and then exposed to an 11 point dilution of test compound with final concentration ranges of test compound ranging from 1250 μM to 10 nM. Cells were left in the presence of test compound for 72 hours. Extracts were prepared containing all of the cellular histone material using detergent based lysis and sonication methods. These lysates were subsequently normalized for total protein content using a colorimetric bicinchonic acid assay (MicroBCA Pierce/Thermo Scientific). Normalized cell extracts were then subjected to typical immuno-blotting procedures using NuPage reagents (Life Technologies). Electrophoretically separated histones were then transferred and immobilized using polyvinylidene difluoride membrane (Immobilon-FL Millipore). The amount of tri-methylated lysine 4 of histone H3 was detected using an antibody specific to the tri-methylated state (Cell Signaling Technologies) and quantified on an infrared imager using a densitometry software package (Odyssey CLx, Image Studio, Li-Cor). This background subtracted densitometry value was reported as a ration of the GAPDH amount for that sample and then calculated as a percent of the DMSO treated sample. The software package XL-fit (IDBS) was then used to calculate a relative IC50 value for the dilution series of a given test compound according to the equation: fit=(D+((Vmax*(x^n))/((x^n)+(Km^n)))).

As to `Oc1nc(Oc2cccc(Cl)c2)nc2cnccc12` [Example 41, 2-(3-chlorophenoxy)pyrido[3,4-d]pyrimidin-4-ol], the pIC50 is no less than 7.00 against Jarid1A and less than 5.00 with KDM5A/B.
Regarding `COc1cccc(Oc2nc(O)c3ccncc3n2)c1` [Example 44, 2-(3-methoxyphenoxy)pyrido[3,4-d]pyrimidin-4-ol], the pIC50 at Jarid1A was no less than 7.00; with KDM5A/B, less than 5.00.
For `CCOc1c(F)cc(Oc2nc(O)c3ccncc3n2)cc1F` [Example 45, 2-(4-ethoxy-3,5-difluorophenoxy)pyrido[3,4-d]pyrimidin-4-ol], in that order: no less than 7.00 and less than 5.00.
With `Oc1nc(Oc2ccc(F)cc2)nc2cnccc12` [Example 47, 2-(4-fluorophenoxy)pyrido[3,4-d]pyrimidin-4-ol], the pIC50 against Jarid1A was no less than 7.00; in the test on KDM5A/B it was less than 5.00.
For `COc1ccc(Oc2nc(O)c3ccncc3n2)cc1` [Example 48, 2-(4-methoxyphenoxy)pyrido[3,4-d]pyrimidin-4-ol], in that order: no less than 7.00 and less than 5.00.
On to `Oc1nc(Oc2ccc(Cl)cc2)nc2cnccc12` [Example 49, 2-(4-chlorophenoxy)pyrido[3,4-d]pyrimidin-4-ol], for which the pIC50 at Jarid1A was no less than 7.00; with KDM5A/B, less than 5.00.
Regarding `CN(C)c1cccc(Oc2nc(O)c3ccncc3n2)c1` [Example 50, 2-[3-(dimethylamino)phenoxy]pyrido[3,4-d]pyrimidin-4-ol], the pIC50 was no less than 7.00 against Jarid1A and less than 5.00 in the test with KDM5A/B.
`Oc1nc(Oc2cccc(C(F)(F)F)c2)nc2cnccc12` [Example 52, 2-[3-(trifluoromethyl)phenoxy]pyrido[3,4-d]pyrimidin-4-ol]: the pIC50 was no less than 7.00 against Jarid1A and 5.00 to 6.00 with KDM5A/B.
For `COc1ccc(Oc2nc(O)c3ccncc3n2)cc1F` [Example 53, 2-(3-fluoro-4-methoxyphenoxy)pyrido[3,4-d]pyrimidin-4-ol], in that order: no less than 7.00 and 5.00 to 6.00.
For `CCCn1cc(Oc2nc(O)c3ccncc3n2)cn1` [Example 54, 2-(1-propylpyrazol-4-yl)oxypyrido[3,4-d]pyrimidin-4-ol], in that order: no less than 7.00 and 5.00 to 6.00.
With `CC(C)CCn1cc(Oc2nc(O)c3ccncc3n2)cn1` [Example 55, 2-{[1-(3-methylbutyl)pyrazol-4-yl]oxy}pyrido[3,4-d]pyrimidin-4-ol], the pIC50 was no less than 7.00 against Jarid1A and 5.00 to 6.00 in the test on KDM5A/B.
Turning to `Oc1nc(Oc2cnn(C3CCCC3)c2)nc2cnccc12` [Example 56, 2-[(1-cyclopentylpyrazol-4-yl)oxy]pyrido[3,4-d]pyrimidin-4-ol], the pIC50 is no less than 7.00 against Jarid1A and 5.00 to 6.00 in the test on KDM5A/B.
For the compound `CCc1cccc(Oc2nc(O)c3ccncc3n2)c1` [Example 57, 2-(3-ethylphenoxy)pyrido[3,4-d]pyrimidin-4-ol], the pIC50 is no less than 7.00 against Jarid1A and less than 5.00 with KDM5A/B.
Regarding `Oc1nc(Oc2cnn(Cc3ccccc3)c2)nc2cnccc12` [Example 66, 2-[(1-benzyl-1H-pyrazol-4-yl)oxy]pyrido[3,4-d]pyrimidin-4-ol], the pIC50 is no less than 7.00 on Jarid1A and 5.00 to 6.00 in the test with KDM5A/B.
As to `CCOc1nc(O)c2ccnc(-c3cn(C)cn3)c2n1` [Example 69, 2-ethoxy-8-(1-methyl-1H-imidazol-4-yl)pyrido[3,4-d]pyrimidin-4-ol], the negative logarithm of the IC50 (pIC50) was no less than 7.00 against Jarid1A and less than 5.00 with KDM5A/B.
Turning to `Cn1cnc(-c2nccc3c(O)nc(OCC(F)(F)F)nc23)c1` [Example 70, 8-(1-methyl-1H-imidazol-4-yl)-2-(2,2,2-trifluoroethoxy)pyrido[3,4-d]pyrimidin-4-ol], the pIC50 against Jarid1A was no less than 7.00; with KDM5A/B, 5.00 to 6.00.
Regarding `Cn1cnc(-c2nccc3c(O)nc(OCc4ccc(F)cc4)nc23)c1` [Example 71, 2-[(4-fluorobenzyl)oxy]-8-(1-methyl-1H-imidazol-4-yl)pyrido[3,4-d]pyrimidin-4-ol], the pIC50 at Jarid1A is no less than 7.00; in the test on KDM5A/B, 5.00 to 6.00.
With `Cn1cnc(-c2nccc3c(O)nc(OCC4CC4)nc23)c1` [Example 72, 2-(cyclopropylmethoxy)-8-(1-methylimidazol-4-yl)pyrido[3,4-d]pyrimidin-4-ol], the pIC50 on Jarid1A was no less than 7.00; in the test with KDM5A/B it was 5.00 to 6.00.
Consider `Cn1cnc(-c2nccc3c(O)nc(OCCCC(F)(F)F)nc23)c1` [Example 74, 8-(1-methylimidazol-4-yl)-2-(4,4,4-trifluorobutoxy)pyrido[3,4-d]pyrimidin-4-ol], for which the negative-log IC50 (pIC50) at Jarid1A is no less than 7.00; in the test on KDM5A/B, 6.00 to 7.00.
`Cn1cnc(-c2nccc3c(O)nc(OCCO)nc23)c1` [Example 75, 2-(2-hydroxyethoxy)-8-(1-methylimidazol-4-yl)pyrido[3,4-d]pyrimidin-4-ol]: the figures for the pIC50 on Jarid1A and in the test with KDM5A/B were no less than 7.00 and less than 5.00, respectively.
For `Oc1nc(Oc2cnn(Cc3ccc(F)cc3)c2)nc2cnccc12` [Example 86, 2-[1-(4-fluorobenzyl)pyrazol-4-yl]oxypyrido[3,4-d]pyrimidin-4-ol], in that order: no less than 7.00 and 5.00 to 6.00.
Consider `Oc1nc(Oc2cnn(Cc3ccccc3F)c2)nc2cnccc12` [Example 87, 2-[1-(2-fluorobenzyl)pyrazol-4-yl]oxypyrido[3,4-d]pyrimidin-4-ol], for which the pIC50 is no less than 7.00 on Jarid1A and 6.00 to 7.00 in the test on KDM5A/B.
As to `CC(C)(C)OC(=O)N1CCC(n2cc(Oc3nc(O)c4ccncc4n3)cn2)CC1` [Example 88, tert-butyl 4-[4-(4-hydroxypyrido[3,4-d]pyrimidin-2-yl)oxypyrazol-1-yl]piperidine-1-carboxylate], the pIC50 against Jarid1A is no less than 7.00; in the test on KDM5A/B, 5.00 to 6.00.

The values above are taken from patent publication US10526327B2, “Histone demethylase inhibitors” (CELGENE QUANTICEL RESEARCH, INC., priority 2013, dated 2020).
